Assay results as given in patent publication US10334853B2, “Compositions and methods for treating ectoparasite infestation” (Larada Sciences, Inc., priority 2016, dated 2019).

Test system: live parasites, most commonly a louse
Test: Petri dish screening: drops of test formulation on live parasites
Format: in vivo
Conditions: evaluation of solvents, method of Example 1
Text: In one procedure that provides an evaluative method for determining effectiveness of commercial products, live parasites were removed from subjects' hair and placed into a Petri dish. One to two drops of test formulation were placed upon the test insect, most commonly a louse. The specimen was observed under magnification for initial movement, and was kept under observation for up to fifteen additional minutes. […] The effectiveness of the treatment was then rated on a 0-4 scale, with a score of 0 denoting total ineffectiveness and a score of 4 denoting total kill.

`CCCCOC(=O)CC(C)O` (stereo not shown) [Example B1, Butyl 3-hydroxybutyrate] was tested, and the “Efficacy Score” value was 0 (No elimination of live lice after 5 minutes (100% live lice remain)).
